Assay results: publication PMC10892660 (Pharmaceutics, 2024)
Like-named read-outs stand apart in the source and are kept apart here. Each block holds one compound with its values, some of them ahead of it.

Columns and labels:
[1] = cited from earlier work
[2] = Non-clinical drug–drug interaction / oral pharmacokinetic study in Sprague–Dawley rats; assay type: in vivo, rat; settings: for AUC(0-inf) / CL/F / Cmax / Tmax / half-life: male, Sprague-Dawley, plasma
Description: Male Sprague–Dawley (SD) rats, 7 weeks old (180–210 g), were purchased from Hana Biotech (Pyeongtaek, Republic of Korea). The rats were kept in a room with a relative humidity of 50–60%, a temperature of 21 ± 2 °C, and a 12 h light/dark cycle and were acclimatized to these conditions for a week. The protocol for these experiments was approved by Inje University’s Animal Care Committee (Inje 2022-012, Gimhae, Republic of Korea).
The drug was orally administered via a feeding tube, employing a total dosing volume of 5 mL/kg across all groups. Blood samples (approximately 200 μL) were collected from the jugular vein at 0.25, 0.5, 1, 2, 3, 4, 6, 8, 12, and 24 h post-dose. […] The blood samples were promptly centrifuged at 15,000 rpm for 5 min at 4 °C. The resulting plasma was stored at -70 °C until HPLC or LC-MS/MS analysis.
The calculated pharmacokinetic parameters included the following: area under the time–plasma concentration curve (AUC) between from0 to infinity (AUCinf); maximum plasma concentration (Cmax); time to reach maximum concentration (Tmax); terminal half-life (t1/2); oral clearance (CL/F). Pharmacokinetic parameters are expressed as the mean ± standard deviation (SD). For statistical analysis, a Student’s t-test was performed using GraphPad Prism software (San Diego, CA, USA) with a significance threshold of less than 0.05.
The LC-MS/MS system consisted of an Agilent 6490 triple quadrupole mass spectroscopy system and a 1290 infinity HPLC system (Agilent Technologies, Santa Clara, CA, USA). The separation of compounds was accomplished by a reversed-phase column (Synergi Polar-RP 80 Å, 150 × 2.0 mm, 4 μm, Phenomenex, Torrance, CA, USA) with a security guard. […] Multiple reaction monitoring (MRM) modes were used for the quantitative study of the compound’s precursor ion and product ion transitions. […] In addition, 1′-hydroxy midazolam was analyzed under the following conditions. The mobile phase was a mixture of 0.1% formic acid in water and ACN (50:50 v/v), with a flow rate of 0.2 mL/min. The column temperature was kept constant at 25 °C. The following ion values (m/z) were obtained by monitoring the transitions: 1′-hydroxy midazolam, 342.0 → 203.1; phenacetin (IS), 180.0 → 162.2. The data analysis was achieved using MassHunter software version A.06.00 (Agilent Technologies, Santa Clara, CA, USA).
The HPLC system included a degasser pump (L-2130), a column oven (L-2300), an autosampler (L-2200), and a diode array detector (L-2455). The analysis was carried out using the software Hitachi LaChrom D-2000 Elite (Merck-Hitachi, Tokyo, Japan). The separation was accomplished using a reversed-phase column (Synchronis C18 150 × 4.6 mm, 5 μm, Thermo Scientific, Waltham, MA, USA) with a guard column (security guard C18 4 × 2.0 mm, Phenomenex, Torrance, CA, USA). The mobile phase was comprised of phases A (ACN) and B (0.015 M potassium phosphate monobasic (KH2PO4) with 2.8 mM triethylamine in water). The mobile phase was A:B = 60:40, with a flow rate of 1.5 mL/min. The temperature of the column oven controller was maintained at 40 °C, and 50 μL of sample was injected into the system.

[3] = cited from earlier work; remark: listed apart in the source
[4] = cited from earlier work; remark: listed apart in the source
[5] = cited from earlier work; remark: listed apart in the source
[6] = cited from earlier work; remark: listed apart in the source
[7] = test system: CYP3A4; settings: nicardipine, cited from earlier work
[8] = test system: hCYP3A4; set-up: method as in PMID 22496391; settings: saxagliptin, cited from earlier work
[9] = molecular target: T1, recombinant rat CYP3A2 (rCYP3A2) (Rattus norvegicus, UniProt P05183); assay: Saxagliptin metabolic stability with recombinant rat CYP3A2; assay type: in vitro ADME; settings: in-house data
T1 construct: purchased Xenotech (Lenexa, KS, USA)
T1 sequence (P05183 1-504): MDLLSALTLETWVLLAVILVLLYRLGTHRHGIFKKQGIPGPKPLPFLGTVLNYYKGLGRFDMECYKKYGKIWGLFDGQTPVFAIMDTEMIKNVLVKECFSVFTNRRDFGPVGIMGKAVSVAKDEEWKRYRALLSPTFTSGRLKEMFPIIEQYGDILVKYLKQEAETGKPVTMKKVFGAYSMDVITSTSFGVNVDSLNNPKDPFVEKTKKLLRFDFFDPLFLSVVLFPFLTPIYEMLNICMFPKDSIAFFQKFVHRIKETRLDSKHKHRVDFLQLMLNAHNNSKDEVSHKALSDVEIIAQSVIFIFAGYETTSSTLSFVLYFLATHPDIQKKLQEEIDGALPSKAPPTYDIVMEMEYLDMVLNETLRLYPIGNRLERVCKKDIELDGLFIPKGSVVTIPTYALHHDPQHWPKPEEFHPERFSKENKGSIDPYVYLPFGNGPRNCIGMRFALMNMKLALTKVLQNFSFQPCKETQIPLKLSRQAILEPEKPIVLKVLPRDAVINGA
Description: (§1) After initiating the reaction by adding NADPH solution, the sampling was carried out at 37 °C for 0, 5, 10, 20, and 30 min in triplicate and stopped with methanol containing 200 ng/mL tolbutamide as an internal standard (IS) for HPLC analysis.

[10] = molecular target: T2, CYP3A2 (Rattus norvegicus, UniProt P05183); assay: as above; assay type: in vitro ADME; settings: rat, recombinant rat CYP3A2, pH 7.4; read-out: half-life after incubation with rCYP3A2 reaction mixture
T2 construct: purchased Xenotech (Lenexa, KS, USA)
T2 sequence (P05183 1-504): T1 sequence (P05183 1-504)
Description: as §1

[11] = saxagliptin, cited from earlier work
[12] = test system: hCYP3A5; set-up: method as in PMID 22496391; settings: saxagliptin, cited from earlier work
[13] = nicardipine, input of rat and human models
[14] = nicardipine, rat and human models
[15] = saxagliptin, rat PBPK model input
[16] = saxagliptin, human PBPK model input

- AUC(0-inf) ([2]; rat, po, 15 mg/kg, AUCinf of nicardipine, 15 mg/kg alone, mean ± SD): 408 ± 121 ng·h/mL
- Cmax ([2]; rat, po, 15 mg/kg, Cmax of nicardipine, 15 mg/kg alone, mean ± SD): 132 ± 35.3 ng/mL
- Tmax ([2]; rat, po, 15 mg/kg, Tmax of nicardipine, 15 mg/kg alone, mean ± SD): 0.357 ± 0.134 h
- half-life ([2]; rat, po, 15 mg/kg, t1/2 of nicardipine, 15 mg/kg alone, mean ± SD): 5.76 ± 1.45 h
Structure (SMILES): COC(=O)C1=C(C)NC(C)=C(C(=O)OCCN(C)Cc2ccccc2)C1c1cccc([N+](=O)[O-])c1 (centres unmarked) [nicardipine]
- pKa (compound type), input value ([1]; nicardipine, base, input of rat and human models): 8.1 (base)
- pKa (compound type), reference value ([1]; nicardipine, base, rat and human models): 8.1 (base)
- Lipophilicity, input value [1, 13]: 4.6 logD7.4
- Solubility (ref-pH), input value ([1]; nicardipine, pH 7, input of rat and human models): 7.9 (pH 7) mg/mL
- Solubility (ref-pH), reference value ([1]; nicardipine, pH 7, rat and human models): 7.9 (pH 7) mg/mL
- Lipophilicity, reference value [1, 14]: 4.6 logD7.4
- Fraction unbound, rat, input value ([3]; nicardipine, rat PBPK model input): 0.084
- Fraction unbound, rat, reference value ([3]; nicardipine, rat plasma): 0.084
- AUCinf observed ([6]; nicardipine, human po 40 mg): 163 ng·h/mL
- Cmax observed ([6]; nicardipine, human po 40 mg): 58.8 ng/mL

- AUC(0-inf) ([2]; rat, po, 5 mg/kg, AUCinf of saxagliptin, alone, SXG 5 mg/kg alone, mean ± SD): 156 ± 22.9 ng·h/mL
- AUC(0-inf) ([2]; rat, po, 5 mg/kg, AUCinf of saxagliptin, co-administered with nicardipine, rat, po, SXG 5 mg/kg + NCD 15 mg/kg, mean ± SD): 408 ± 213 ng·h/mL
- CL/F ([2]; rat, po, 5 mg/kg, CL/F of saxagliptin, alone, SXG 5 mg/kg alone, mean ± SD): 542 mL/min/kg
- CL/F ([2]; rat, po, 5 mg/kg, CL/F of saxagliptin, co-administered with nicardipine, rat, po, SXG 5 mg/kg + NCD 15 mg/kg, mean ± SD): 238 mL/min/kg
- Cmax ([2]; rat, po, 5 mg/kg, Cmax of saxagliptin, alone, SXG 5 mg/kg alone, mean ± SD): 98.5 ± 15.1 ng/mL
- Cmax ([2]; rat, po, 5 mg/kg, Cmax of saxagliptin, co-administered with nicardipine, rat, po, SXG 5 mg/kg + NCD 15 mg/kg, mean ± SD): 281 ± 147 ng/mL
- Tmax ([2]; rat, po, 5 mg/kg, Tmax of saxagliptin, alone, SXG 5 mg/kg alone, mean ± SD): 0.417 ± 0.129 h
- Tmax ([2]; rat, po, 5 mg/kg, Tmax of saxagliptin, co-administered with nicardipine, rat, po, SXG 5 mg/kg + NCD 15 mg/kg, mean ± SD): 0.464 ± 0.094 h
- half-life ([2]; rat, po, 5 mg/kg, t1/2 of saxagliptin, alone, SXG 5 mg/kg alone, mean ± SD): 1.82 ± 0.737 h
- half-life ([2]; rat, po, 5 mg/kg, t1/2 of saxagliptin, co-administered with nicardipine, rat, po, SXG 5 mg/kg + NCD 15 mg/kg, mean ± SD): 2.97 ± 1.23 h
- Cmax ([2]; rat, po, Cmax of saxagliptin, co-administered with nicardipine, rat, po, SXG 5 mg/kg + NCD 15 mg/kg, mean ± SD): 280 ± 147 ng/mL
- AUCinf of saxagliptin, alone ([2]; rat, po, SXG 5 mg/kg alone, mean ± SD, listed as SXG): 157 ± 23.1 ng·h/mL
- increase of plasma concentration of saxagliptin in vivo ([2]; rats, co-administration with nicardipine): more than 2 fold
- CLint rCYP3A2, reference ([9]; saxagliptin 5 μM, 10 pmol CYP/mL, 1 mM NADPH, 37 °C): 1.99 μL/min/pmol CYP
- CLint rCYP3A2, input [9, 15]: 1.99 μL/min/pmol CYP
- half-life at 5 μM [10]: 0.58 h
Structure (SMILES): N#C[C@@H]1C[C@@H]2C[C@@H]2N1C(=O)[C@@H](N)C12CC3CC(CC(O)(C3)C1)C2 [saxagliptin]
- pKa (compound type), input ([1]; saxagliptin, base, input of rat and human models): 7.9 (base)
- pKa (compound type), reference ([1]; saxagliptin, base, rat and human models): 7.9 (base)
- Solubility (ref-pH), input ([1]; saxagliptin, pH 7, input of rat and human models): 17.6 (pH 7) mg/mL
- Solubility (ref-pH), reference ([1]; saxagliptin, pH 7, rat and human models): 17.6 (pH 7) mg/mL
- Lipophilicity, reference ([1]; saxagliptin, reference value for rat and human PBPK models): −0.35 logD7.4
- Fraction unbound, rat, input [3, 15]: 0.82
- Fraction unbound, rat, reference ([3]; saxagliptin, rat): 0.82
- Fraction unbound, human, input [4, 16]: 1
- Fraction unbound, human, reference ([4]; saxagliptin, human): 1
- CLint hCYP3A4, input ([8]; human PBPK model input): 0.38 μL/min/pmol CYP
- CLint hCYP3A4, reference ([8]; human): 0.38 μL/min/pmol CYP
- Specific intestinal permeability, reference ([5]; saxagliptin, rat and human models): 2.73 10^−6 cm/s
- Renal clearance, rat, input ([11]; rat PBPK model input): 38 mL/min/kg
- Renal clearance, rat, reference ([11]; rat): 38 mL/min/kg
- CLint hCYP3A5, input ([12]; human PBPK model input): 0.09 μL/min/pmol CYP
- CLint hCYP3A5, reference ([12]; human): 0.09 μL/min/pmol CYP
- AUCinf observed ([6]; saxagliptin, human po 2.5 mg): 49.1 ng·h/mL
- Cmax observed ([6]; saxagliptin, human po 2.5 mg): 7.89 ng/mL
- t1/2 observed ([6]; saxagliptin, human po 2.5 mg): 7.21 h
- Renal clearance, human, input [6, 16]: 1.9 mL/min/kg
- Renal clearance, human, reference ([6]; saxagliptin, human): 1.9 mL/min/kg
